Data published in patent US20230393140A1, “BINDING ASSAYS INVOLVING A PLURALITY OF SYNTHETIC COMPOUNDS, TARGETS, AND COUNTER TARGETS” (SRI International, priority 2020, published 2023).
Like-named read-outs stand apart in the source and are kept apart here. Numbered stars: 1 amine (or outer) side, 2 acyl side, 3 side chain; on linkers, the order of the positions; unused ones are H or OH. Square brackets hold non-standard residues; d marks the D form. Peptide text beside a SMILES is read from it. * marks the point of attachment. 5FAM = O=C1OC2(c3ccc(O)cc3Oc3cc(O)ccc32)c2ccc(C(=O)*)cc21; NHCH2C6H4(4-CH2CONH2) = NC(=O)Cc1ccc(CN*)cc1; X1 = O=C(Cc1ccc(CN[*:1])cc1)[*:2]

Experiments:
IL-6 = target: T1, IL-6 (Homo sapiens, UniProt P05231); experiment: MST binding affinity of resynthesized NNP hits to IL-6
T1 construct: purchased Creative Biomart IL6-12H
Method: (§1) Hit binding affinity to various targets were determined using Microscale Thermophoresis (MST). MST experiments were performed on a Monolith NT.115pico (NanoTemper Technologies GmbH, Munich, Germany). Measurements were performed at room temperature, in triplicate with incubation periods of 15, 30 and 45 minutes. […] Targets were labeled using Nanotemper Monolith 2nd Generation Protein Labeling Kits. RED-MALEIMIDE (Maleimide-647-dye) labeling kit was used for K-Ras and RED-NHS (NHS-647-dye) labeling kit was used for IL-6, IL-6R, TNFα and ASGPR. The buffer for the ASGPR contained 20 mM HEPES pH 7.4, 150 mM NaCl, 10 mM MgCl2, 2 mM CaCl2, 0.05% Pluronic F-127, and 1 mM DTT; for IL-6 contained 20 mM HEPES pH 7.4, 150 mM KCl, 10 mM MgCl2, and 0.1% Pluronic F-127; for the soluble IL-6 receptor 20 mM HEPES pH 7.4, 150 mM NaCl, 10 mM MgCl2, and 0.05% Tween-20; for K-Ras 20 mM HEPES pH 7.4, 150 mM NaCl, 10 mM MgCl2, 0.05% Tween-20 and 1 mM DTT; for TNFα 10 mM HEPES pH 7.4, 150 mM NaCl, 10 mM MgCl2, 0.05% Polysorbate-20. Triplicate data was analyzed using MO.AffinityAnalysis software (NanoTemper Technologies GmbH).

ASGPR = target: T2, ASGPR (Homo sapiens, UniProt P07306); experiment: MST binding affinity of resynthesized NNP hits to ASGPR; conditions: read-out: KD (nM) [95% conf. int]; MST; NNP1 library hit; target ASGPR; one-site binding model
T2 construct: purchased R&D Systems, Inc. 4394-AS
T2 sequence (P07306 1-291): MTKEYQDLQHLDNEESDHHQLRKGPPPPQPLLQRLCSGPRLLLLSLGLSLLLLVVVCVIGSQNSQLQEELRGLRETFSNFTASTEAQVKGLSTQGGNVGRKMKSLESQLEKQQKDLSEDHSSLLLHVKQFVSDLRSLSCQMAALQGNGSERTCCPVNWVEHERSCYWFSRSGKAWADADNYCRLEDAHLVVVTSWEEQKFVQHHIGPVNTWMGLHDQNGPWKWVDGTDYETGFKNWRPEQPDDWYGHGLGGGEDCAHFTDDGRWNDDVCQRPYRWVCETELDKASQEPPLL
Method: as §1

Structure (SMILES) | Kd (ASGPR) [nM] | further results
CC(C)C[C@H](NC(=O)[C@@H](CCCNC(=N)N)NC(=O)[C@@H](Cc1c[nH]c2ccccc12)NC(=O)Cc1ccc(CNC(=O)[C@H](Cc2ccccc2)NC(=O)[C@@H](CO)NC(=O)[C@@H](CCCNC(=N)N)NC(=O)Cc2ccc(CNC(=O)[C@H](Cc3ccccc3)NC(=O)[C@@H](CO)NC(=O)[C@@H](CCC(=O)O)NC(=O)Cc3ccc(CNC(=O)[C@H](Cc4ccccc4)NC(=O)[C@@H](Cc4c[nH]c5ccccc45)NC(=O)[C@@H](CCCNC(=N)N)NC(=O)c4ccc5c(c4)C(=O)OC54c5ccc(O)cc5Oc5cc(O)ccc54)cc3)cc2)cc1)C(=O)NCc1ccc(CC(=O)NCC(=O)N[C@H](C)C(=O)N[C@H](C(=O)NCc2ccc(CC(=O)N[C@H](CC(N)=O)C(=O)N[C@H](CCCNC(=N)N)C(=O)N[C@@H](Cc3ccccc3)C(=O)NCc3ccc(CC(=O)N[C@H](C)C(=O)N[C@H](CO)C(=O)N[C@@H](Cc4ccccc4)C(=O)NCc4ccc(CC(=O)N5CCC[C@@H]5C(=O)N[C@H](CCCNC(=N)N)C(=O)N[C@@H](C)C(=O)NCc5ccc(CC(=O)N[C@H](Cc6ccccc6)C(=O)N[C@H](CCCCN)C(=O)NCC(=O)NCc6ccc(CC(N)=O)cc6)cc5)cc4)cc3)cc2)C(C)C)cc1 [IL6-65-3, Fluorescein-(D)Arg-(D)Trp-(L)Phe-PAM-(D)Glu-(D)Ser-(L)Phe-PAM-(D)Arg-(D)Ser-(L)Phe-PAM-(D)Trp-(D)Arg-(L)Leu-PAM-Gly-(D)Ala-(L)Val-PAM-(D)Asn-(D)Arg-(L)Phe-PAM-(D)Ala-(D)Ser-(L)Phe- PAM-(D)Pro-(D)Arg-(L)Ala-PAM-(D)Phe-(D)Lys-Gly-PAM] (5FAM-[dR][dW]F[X1][dE][dS]F[X1][dR][dS]F[X1][dW][dR]L[X1]G[dA]V[X1][dN][dR]F[X1][dA][dS]F[X1][dP][dR]A[X1][dF][dK]G-{NHCH2C6H4(4-CH2CONH2)}) | – | Kd (IL-6; NNP2 library hit, target IL-6, one-site binding model): 90 nM
CC(C)C[C@H](NC(=O)[C@@H](CCCNC(=N)N)NC(=O)CNC(=O)Cc1ccc(CNC(=O)[C@H](CC(C)C)NC(=O)[C@@H](CC(C)C)NC(=O)[C@@H](Cc2ccc(O)cc2)NC(=O)c2ccc3c(c2)C(=O)OC32c3ccc(O)cc3Oc3cc(O)ccc32)cc1)C(=O)NCc1ccc(CC(=O)N[C@H](CCCNC(=N)N)C(=O)N[C@H](CO)C(=O)N[C@@H](Cc2ccccc2)C(=O)NCc2ccc(CC(=O)N[C@H](Cc3ccccc3)C(=O)N[C@H](CCCNC(=N)N)C(=O)N[C@@H](C)C(=O)NCc3ccc(CC(=O)N[C@H](CCC(=O)O)C(=O)N[C@H](CCCCN)C(=O)N[C@@H](Cc4ccccc4)C(=O)NCc4ccc(CC(=O)N[C@H](CCC(=O)O)C(=O)N[C@H](CCCNC(=N)N)C(=O)N[C@@H](CC(C)C)C(=O)NCc5ccc(CC(=O)N[C@H](C)C(=O)N[C@H](CCCNC(=N)N)C(=O)N[C@@H](CC(C)C)C(=O)NCc6ccc(CC(=O)N7CCC[C@@H]7C(=O)N[C@H](CCCNC(=N)N)C(=O)N[C@@H](C)C(=O)NCc7ccc(CC(=O)N[C@H](Cc8ccc(O)cc8)C(=O)N[C@H](CCCNC(=N)N)C(=O)N[C@@H](Cc8ccccc8)C(=O)NCc8ccc(CC(N)=O)cc8)cc7)cc6)cc5)cc4)cc3)cc2)cc1 [IL6-65-7, Fluorescein-(D)Tyr-(D)Leu-(L)Leu-PAM-Gly-(D)Arg-(L)Leu-PAM-(D)Arg-(D)Ser-(L)Phe-PAM-(D)Phe-(D)Arg-(L)Ala-PAM-(D)Glu-(D)Lys-(L)Phe-PAM-(D)Glu-(D)Arg-(L)Leu-PAM-(D)Ala-(D)Arg-(L)Leu- PAM-(D)Pro-(D)Arg-(L)Ala-PAM-(D)Tyr-(D)Arg-(L)Phe-PAM] (5FAM-[dY][dL]L[X1]G[dR]L[X1][dR][dS]F[X1][dF][dR]A[X1][dE][dK]F[X1][dE][dR]L[X1][dA][dR]L[X1][dP][dR]A[X1][dY][dR]F-{NHCH2C6H4(4-CH2CONH2)}) | – | Kd (IL-6; read-out: KD (nM) [95% conf. int], NNP2 library hit, target IL-6, one-site binding model): 210 nM
CC(C)C[C@H](NC(=O)[C@@H](CCCNC(=N)N)NC(=O)[C@@H](CCCCN)NC(=O)[C@@H](CCC(=O)O)NC(=O)[C@@H](Cc1ccccc1)NC(=O)Cc1ccc(CNC(=O)[C@H](Cc2ccccc2)NC(=O)[C@@H](CO)NC(=O)[C@@H](CCC(=O)O)NC(=O)[C@H]2CCCN2C(=O)[C@@H](CC(C)C)NC(=O)c2ccc3c(c2)C(=O)OC32c3ccc(O)cc3Oc3cc(O)ccc32)cc1)C(=O)NCc1ccc(CC(=O)N[C@H](Cc2c[nH]cn2)C(=O)N[C@H](CO)C(=O)N2CCC[C@@H]2C(=O)N[C@H](CCCNC(=N)N)C(=O)N[C@H](C(=O)NCc2ccc(CC(=O)N3CCC[C@@H]3C(=O)N[C@H](CCCCN)C(=O)N[C@H](Cc3ccc(O)cc3)C(=O)N[C@H](CCCNC(=N)N)C(=O)N[C@@H](Cc3ccccc3)C(=O)NCc3ccc(CC(=O)N[C@H](CCCNC(=N)N)C(=O)N[C@H](Cc4ccccc4)C(=O)N4CCC[C@@H]4C(=O)N[C@@H](C(=O)NCC(=O)NCc4ccc(CC(=O)N[C@H](CC(C)C)C(=O)N5CCC[C@@H]5C(=O)N[C@H](CCCNC(=N)N)C(=O)N[C@@H](C(=O)NCC(=O)NCc5ccc(CC(N)=O)cc5)[C@H](C)O)cc4)C(C)C)cc3)cc2)C(C)C)cc1 [ASGPR-9-7] (5FAM-[dL][dP][dE][dS]F[X1][dF][dE][dK][dR]L[X1][dH][dS][dP][dR]V[X1][dP][dK][dY][dR]F[X1][dR][dF][dP][dV]G[X1][dL][dP][dR][dT]G-{NHCH2C6H4(4-CH2CONH2)}) | 150 | –
CC(C)C[C@H](NC(=O)[C@@H](Cc1c[nH]cn1)NC(=O)[C@@H](CC(C)C)NC(=O)[C@H]1CCCN1C(=O)[C@@H](CC(N)=O)NC(=O)Cc1ccc(CNC(=O)[C@H](Cc2ccccc2)NC(=O)[C@@H](Cc2c[nH]cn2)NC(=O)[C@@H](CCCNC(=N)N)NC(=O)[C@@H](CC(N)=O)NC(=O)[C@@H](Cc2ccc(O)cc2)NC(=O)Cc2ccc(CNC(=O)[C@H](CC(C)C)NC(=O)[C@@H](CCCNC(=N)N)NC(=O)[C@@H](CCCCN)NC(=O)[C@@H](CCC(=O)O)NC(=O)[C@@H](Cc3ccccc3)NC(=O)Cc3ccc(CNC(=O)[C@H](Cc4ccccc4)NC(=O)[C@@H](CO)NC(=O)[C@@H](CCC(=O)O)NC(=O)[C@H]4CCCN4C(=O)[C@@H](CC(C)C)NC(=O)c4ccc5c(c4)C(=O)OC54c5ccc(O)cc5Oc5cc(O)ccc54)cc3)cc2)cc1)C(=O)NCc1ccc(CC(=O)N[C@H](CCCNC(=N)N)C(=O)N[C@H](Cc2ccccc2)C(=O)N2CCC[C@@H]2C(=O)N[C@@H](C(=O)NCC(=O)NCc2ccc(CC(=O)N[C@H](CC(C)C)C(=O)N3CCC[C@@H]3C(=O)N[C@H](CCCNC(=N)N)C(=O)N[C@@H](C(=O)NCC(=O)NCc3ccc(CC(N)=O)cc3)[C@H](C)O)cc2)C(C)C)cc1 [ASGPR-9-10] (5FAM-[dL][dP][dE][dS]F[X1][dF][dE][dK][dR]L[X1][dY][dN][dR][dH]F[X1][dN][dP][dL][dH]L[X1][dR][dF][dP][dV]G[X1][dL][dP][dR][dT]G-{NHCH2C6H4(4-CH2CONH2)}) | 97 | –
CC(C)C[C@H](NC(=O)[C@@H](Cc1c[nH]c2ccccc12)NC(=O)[C@@H](CCC(=O)O)NC(=O)[C@@H](CO)NC(=O)[C@@H](CCCNC(=N)N)NC(=O)Cc1ccc(CNC(=O)[C@H](Cc2ccccc2)NC(=O)[C@@H](Cc2c[nH]cn2)NC(=O)[C@@H](CCCNC(=N)N)NC(=O)[C@@H](CC(N)=O)NC(=O)[C@@H](Cc2ccc(O)cc2)NC(=O)Cc2ccc(CNC(=O)[C@H](CC(C)C)NC(=O)[C@@H](CCCNC(=N)N)NC(=O)[C@@H](CCCCN)NC(=O)[C@@H](CCC(=O)O)NC(=O)[C@@H](Cc3ccccc3)NC(=O)Cc3ccc(CNC(=O)[C@H](Cc4ccccc4)NC(=O)[C@@H](CO)NC(=O)[C@@H](CCC(=O)O)NC(=O)[C@H]4CCCN4C(=O)[C@@H](CC(C)C)NC(=O)c4ccc5c(c4)C(=O)OC54c5ccc(O)cc5Oc5cc(O)ccc54)cc3)cc2)cc1)C(=O)NCc1ccc(CC(=O)N[C@H](CCCNC(=N)N)C(=O)N[C@H](Cc2ccccc2)C(=O)N2CCC[C@@H]2C(=O)N[C@@H](C(=O)NCC(=O)NCc2ccc(CC(=O)N[C@H](CC(C)C)C(=O)N3CCC[C@@H]3C(=O)N[C@H](CCCNC(=N)N)C(=O)N[C@@H](C(=O)NCC(=O)NCc3ccc(CC(N)=O)cc3)[C@H](C)O)cc2)C(C)C)cc1 [ASGPR-9-11] (5FAM-[dL][dP][dE][dS]F[X1][dF][dE][dK][dR]L[X1][dY][dN][dR][dH]F[X1][dR][dS][dE][dW]L[X1][dR][dF][dP][dV]G[X1][dL][dP][dR][dT]G-{NHCH2C6H4(4-CH2CONH2)}) | 0.22 | –
